Assay: xn = mol fraction of the nth substance listed
Settings: 101 kPa, Liquid; for speed of sound: Sing-around technique in a fixed-path interferometer; for mass density: Vibrating tube method

CCCCCn1cc[n+](C)c1.F[B-](F)(F)F [1-methyl-3-pentyl-imidazolium tetrafluoroborate] + OCCO
Settings	mass density [kg/m3]	speed of sound [m/s]
288.15 K, x1 = 0.0549	1127.51	1659
288.15 K, x1 = 0.1148	1135.95	1639.3
288.15 K, x1 = 0.2053	1145.61	1617.1
288.15 K, x1 = 0.3086	1153.94	1599.3
288.15 K, x1 = 0.4154	1160.64	1587.3
288.15 K, x1 = 0.5063	1165.13	1580.3
288.15 K, x1 = 0.6273	1170.27	1573.1
288.15 K, x1 = 0.7138	1173.4	1569.8
288.15 K, x1 = 0.7982	1176.33	1567.9
288.15 K, x1 = 0.8985	1179.69	1565.9
293.15 K, x1 = 0.0549	1123.89	1646.9
293.15 K, x1 = 0.1148	1132.23	1627.2
293.15 K, x1 = 0.2053	1141.81	1604.6
293.15 K, x1 = 0.3086	1150.12	1586.9
293.15 K, x1 = 0.4154	1156.84	1575
293.15 K, x1 = 0.5063	1161.54	1567.7
293.15 K, x1 = 0.6273	1166.54	1560.8
293.15 K, x1 = 0.7138	1169.75	1558.1
293.15 K, x1 = 0.7982	1172.71	1556.8
293.15 K, x1 = 0.8985	1176.11	1555.3
298.15 K, x1 = 0.0549	1120.27	1634.8
298.15 K, x1 = 0.1148	1128.52	1615.1
298.15 K, x1 = 0.2053	1138.01	1592.4
298.15 K, x1 = 0.3086	1146.31	1574.7
298.15 K, x1 = 0.4154	1153.05	1562.7
298.15 K, x1 = 0.5063	1157.88	1555.5
298.15 K, x1 = 0.6273	1162.86	1548.3
298.15 K, x1 = 0.7138	1166.1	1544.8
298.15 K, x1 = 0.7982	1169.1	1542.3
298.15 K, x1 = 0.8985	1172.64	1540.3
303.15 K, x1 = 0.0549	1116.63	1622.8
303.15 K, x1 = 0.1148	1124.81	1602.9
303.15 K, x1 = 0.2053	1134.22	1580.2
303.15 K, x1 = 0.3086	1142.5	1562.5
303.15 K, x1 = 0.4154	1149.27	1550.6
303.15 K, x1 = 0.5063	1154.21	1543.2
303.15 K, x1 = 0.6273	1159.19	1536.5
303.15 K, x1 = 0.7138	1162.48	1532.8
303.15 K, x1 = 0.7982	1165.5	1530.3
303.15 K, x1 = 0.8985	1169.12	1528.5
308.15 K, x1 = 0.0549	1113	1609.9
308.15 K, x1 = 0.1148	1121.09	1590.9
308.15 K, x1 = 0.2053	1130.44	1568.1
308.15 K, x1 = 0.3086	1138.71	1550.4
308.15 K, x1 = 0.4154	1145.51	1538.5
308.15 K, x1 = 0.5063	1150.46	1531.2
308.15 K, x1 = 0.6273	1155.52	1524.5
308.15 K, x1 = 0.7138	1158.87	1521
308.15 K, x1 = 0.7982	1161.91	1518.5
308.15 K, x1 = 0.8985	1165.59	1516.9
313.15 K, x1 = 0.0549	1109.35	1598.2
313.15 K, x1 = 0.1148	1117.37	1578.9
313.15 K, x1 = 0.2053	1126.66	1556.1
313.15 K, x1 = 0.3086	1134.93	1538.4
313.15 K, x1 = 0.4154	1141.76	1526.5
313.15 K, x1 = 0.5063	1146.71	1519.5
313.15 K, x1 = 0.6273	1151.88	1512.8
313.15 K, x1 = 0.7138	1155.26	1509.2
313.15 K, x1 = 0.7982	1158.35	1506.4
313.15 K, x1 = 0.8985	1162.04	1505.3
318.15 K, x1 = 0.0549	1105.67	1586.7
318.15 K, x1 = 0.1148	1113.63	1566.9
318.15 K, x1 = 0.2053	1122.88	1544.2
318.15 K, x1 = 0.3086	1131.15	1526.6
318.15 K, x1 = 0.4154	1138.02	1514.6
318.15 K, x1 = 0.5063	1142.8	1507.7
318.15 K, x1 = 0.6273	1148.22	1501.5
318.15 K, x1 = 0.7138	1151.65	1497.7
318.15 K, x1 = 0.7982	1154.78	1495.5
318.15 K, x1 = 0.8985	1158.38	1494

CCCCCn1cc[n+](C)c1.[Br-] [1-pentyl-3-methylimidazolium bromide] + OCCO
Settings	mass density [kg/m3]	speed of sound [m/s]
288.15 K, x1 = 0.0528	1135.7	1671.7
288.15 K, x1 = 0.1031	1149.85	1664.4
288.15 K, x1 = 0.2102	1173.93	1650.6
288.15 K, x1 = 0.3163	1191.2	1645.3
288.15 K, x1 = 0.4186	1204.89	1641.4
288.15 K, x1 = 0.512	1215.13	1637.7
288.15 K, x1 = 0.6129	1224.18	1636.5
288.15 K, x1 = 0.6967	1232.13	1638.7
288.15 K, x1 = 0.8031	1241.92	1645
288.15 K, x1 = 0.9021	1252.46	1657.9
293.15 K, x1 = 0.0528	1132.19	1659.9
293.15 K, x1 = 0.1031	1146.32	1653.9
293.15 K, x1 = 0.2102	1170.4	1642
293.15 K, x1 = 0.3163	1187.71	1634.5
293.15 K, x1 = 0.4186	1201.44	1628.9
293.15 K, x1 = 0.512	1211.73	1625.5
293.15 K, x1 = 0.6129	1220.73	1623.6
293.15 K, x1 = 0.6967	1228.69	1623.8
293.15 K, x1 = 0.8031	1238.53	1626.3
293.15 K, x1 = 0.9021	1249.15	1631.1
298.15 K, x1 = 0.0528	1128.67	1648.2
298.15 K, x1 = 0.1031	1142.79	1640.8
298.15 K, x1 = 0.2102	1166.87	1630.7
298.15 K, x1 = 0.3163	1184.21	1623
298.15 K, x1 = 0.4186	1198	1616.8
298.15 K, x1 = 0.512	1208.33	1613.8
298.15 K, x1 = 0.6129	1217.41	1612.4
298.15 K, x1 = 0.6967	1225.25	1611.9
298.15 K, x1 = 0.8031	1235.13	1613.2
298.15 K, x1 = 0.9021	1245.76	1616
303.15 K, x1 = 0.0528	1125.14	1636.4
303.15 K, x1 = 0.1031	1139.26	1629.8
303.15 K, x1 = 0.2102	1163.34	1619.1
303.15 K, x1 = 0.3163	1180.73	1611.6
303.15 K, x1 = 0.4186	1194.57	1606.2
303.15 K, x1 = 0.512	1204.94	1603
303.15 K, x1 = 0.6129	1214.06	1601.7
303.15 K, x1 = 0.6967	1221.86	1600.4
303.15 K, x1 = 0.8031	1231.73	1600.9
303.15 K, x1 = 0.9021	1242.37	1602.4
308.15 K, x1 = 0.0528	1121.61	1624.7
308.15 K, x1 = 0.1031	1135.72	1618.3
308.15 K, x1 = 0.2102	1159.81	1607.5
308.15 K, x1 = 0.3163	1177.25	1600.1
308.15 K, x1 = 0.4186	1191.13	1594.3
308.15 K, x1 = 0.512	1201.54	1591.3
308.15 K, x1 = 0.6129	1210.72	1590
308.15 K, x1 = 0.6967	1218.56	1589.1
308.15 K, x1 = 0.8031	1228.31	1589.3
308.15 K, x1 = 0.9021	1238.93	1589.8
313.15 K, x1 = 0.0528	1118.07	1613.1
313.15 K, x1 = 0.1031	1132.18	1606.5
313.15 K, x1 = 0.2102	1156.29	1596.1
313.15 K, x1 = 0.3163	1173.78	1588.8
313.15 K, x1 = 0.4186	1187.7	1583.2
313.15 K, x1 = 0.512	1198.15	1580.3
313.15 K, x1 = 0.6129	1207.38	1579.1
313.15 K, x1 = 0.6967	1215.25	1578.2
313.15 K, x1 = 0.8031	1225	1578
313.15 K, x1 = 0.9021	1235.48	1578
318.15 K, x1 = 0.0528	1114.51	1601.4
318.15 K, x1 = 0.1031	1128.62	1595
318.15 K, x1 = 0.2102	1152.75	1584.5
318.15 K, x1 = 0.3163	1170.3	1577.5
318.15 K, x1 = 0.4186	1184.27	1572.2
318.15 K, x1 = 0.512	1194.76	1569.5
318.15 K, x1 = 0.6129	1204.05	1568.3
318.15 K, x1 = 0.6967	1211.94	1567.4
318.15 K, x1 = 0.8031	1221.73	1567.1
318.15 K, x1 = 0.9021	1232.06	1566.8

— the NIST ThermoML archive (doi:10.1016/j.fluid.2013.08.029)
